Test results reported in US10758534B2 (Vertex Pharmaceuticals Incorporated, priority 2014, dated 2020).
Read-outs that look alike come from different tables or passages of the source.

Target: T1, F508del (Homo sapiens, UniProt P13569, DEL508-508)
T1 construct: expressed in transfected cells
Assay: Protocol 2: FRET membrane potential optical assay (VIPR), identification of correction compounds
Assay type: cell-based
Procedure, shortened: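 Correction of the F508del trafficking defect is scored as forskolin (10 μM)/genistein (20 μM)-stimulated Cl^− efflux in NIH3T3 mouse fibroblasts after a 16 hr, 37° C. compound exposure. Depolarization was followed optically using voltage-sensing FRET dyes.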

[1] = Table 3, compounds of Table 1 as modulators of CFTR activity, protocol not stated
[2] = F508del CFTR modulator activity, compounds of Table 1, read-out: EC30

T1 sequence (P13569 with tags, fused parts or gaps DEL508-508): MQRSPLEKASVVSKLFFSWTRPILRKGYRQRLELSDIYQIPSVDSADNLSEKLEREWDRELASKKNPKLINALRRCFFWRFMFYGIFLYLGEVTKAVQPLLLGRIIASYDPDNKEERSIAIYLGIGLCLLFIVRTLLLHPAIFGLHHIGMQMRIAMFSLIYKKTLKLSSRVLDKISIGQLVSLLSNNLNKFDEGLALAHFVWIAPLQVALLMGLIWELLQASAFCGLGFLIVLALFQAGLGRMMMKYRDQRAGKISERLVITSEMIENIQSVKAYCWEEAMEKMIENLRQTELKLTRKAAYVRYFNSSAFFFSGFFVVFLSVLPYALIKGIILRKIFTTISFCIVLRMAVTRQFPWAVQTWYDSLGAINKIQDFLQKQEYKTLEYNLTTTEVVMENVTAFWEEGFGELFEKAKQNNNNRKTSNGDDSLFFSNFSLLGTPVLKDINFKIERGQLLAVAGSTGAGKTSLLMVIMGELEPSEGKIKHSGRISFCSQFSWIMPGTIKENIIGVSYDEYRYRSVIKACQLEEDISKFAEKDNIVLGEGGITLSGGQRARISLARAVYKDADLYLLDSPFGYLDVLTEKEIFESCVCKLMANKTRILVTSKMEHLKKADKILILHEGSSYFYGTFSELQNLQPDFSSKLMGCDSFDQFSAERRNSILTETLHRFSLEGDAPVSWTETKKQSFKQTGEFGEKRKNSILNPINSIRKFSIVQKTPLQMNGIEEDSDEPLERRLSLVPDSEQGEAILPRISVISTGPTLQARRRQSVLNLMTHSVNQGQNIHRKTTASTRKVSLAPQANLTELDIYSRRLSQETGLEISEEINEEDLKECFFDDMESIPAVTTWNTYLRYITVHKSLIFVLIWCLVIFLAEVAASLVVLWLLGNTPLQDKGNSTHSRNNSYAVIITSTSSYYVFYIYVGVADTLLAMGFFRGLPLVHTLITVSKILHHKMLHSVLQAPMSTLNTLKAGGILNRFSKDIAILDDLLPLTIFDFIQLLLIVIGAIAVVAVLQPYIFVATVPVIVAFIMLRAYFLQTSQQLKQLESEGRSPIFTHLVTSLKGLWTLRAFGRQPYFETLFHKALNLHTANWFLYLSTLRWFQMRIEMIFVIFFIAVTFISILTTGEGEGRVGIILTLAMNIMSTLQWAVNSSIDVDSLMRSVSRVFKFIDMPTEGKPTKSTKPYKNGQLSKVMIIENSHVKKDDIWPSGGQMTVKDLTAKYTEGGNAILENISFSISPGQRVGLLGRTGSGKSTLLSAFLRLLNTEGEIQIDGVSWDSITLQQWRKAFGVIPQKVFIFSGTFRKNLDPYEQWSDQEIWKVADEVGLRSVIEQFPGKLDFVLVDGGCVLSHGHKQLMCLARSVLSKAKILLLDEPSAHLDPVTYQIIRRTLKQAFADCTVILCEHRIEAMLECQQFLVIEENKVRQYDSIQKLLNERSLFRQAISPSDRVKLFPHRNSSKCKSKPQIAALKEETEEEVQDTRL

EC30 [1]	EC30 [2]	SMILES	other results
–	< 3 µM	CC(CO)COc1ccn(-c2ccc(C(=O)NS(=O)(=O)c3cccnc3N)c(N3C[C@@H](C)CC3(C)C)n2)n1 (stereo partly drawn) [Compound 2192, N-[(2-amino-3-pyridyl)sulfonyl]-6-[3-(3-hydroxy-2-methyl-propoxy)pyrazol-1-yl]-2-[(4S)-2,2,4-trimethylpyrrolidin-1-yl]pyridine-3-carboxamide]	–
–	< 3 µM	C[C@@H]1CN(c2nc(-c3cc(C(F)(F)F)nn3C)ccc2C(=O)NS(=O)(=O)c2cccnc2N)C(C)(C)C1 [Compound 2416, N-[(2-amino-3-pyridyl)sulfonyl]-6-[2-methyl-5-(trifluoromethyl)pyrazol-3-yl]-2-[(4S)-2,2,4-trimethylpyrrolidin-1-yl]pyridine-3-carboxamide]	–
–	3 to 10 µM	Cc1cc(-c2ccc(C(=O)NS(=O)(=O)N3CC[C@H](N)C3)c(N3C[C@@H](C)CC3(C)C)n2)ccc1F [Compound 2472, N-[(3S)-3-aminopyrrolidin-1-yl]sulfonyl-6-(4-fluoro-3-methyl-phenyl)-2-[(4S)-2,2,4-trimethylpyrrolidin-1-yl]pyridine-3-carboxamide]	–
–	< 3 µM	CC1CN(c2ncccc2C(=O)NS(=O)(=O)c2cccc(OCC3(C)CC3)n2)C(C)(C)C1 (stereo not shown) [Compound 2434, N—[[6-[(1-methylcyclopropyl)methoxy]-2-pyridyl]sulfonyl]-2-(2,2,4-trimethylpyrrolidin-1-yl)pyridine-3-carboxamide]	–
–	< 3 µM	CC1CN(c2ncccc2C(=O)NS(=O)(=O)c2cccc(Oc3ccccc3N3CCCCC3)n2)C(C)(C)C1 (stereo not shown) [Compound 2738]	–
–	< 3 µM	Cc1nc2cc(Oc3cccc(S(=O)(=O)NC(=O)c4cccnc4N4CC(C)CC4(C)C)n3)ccc2s1 (stereo not shown) [Compound 2729]	–
–	3 to 10 µM	CC1CN(c2ncccc2C(=O)NS(=O)(=O)c2cccc(N3CC[C@H](F)C3)n2)C(C)(C)C1 (stereo partly drawn) [Compound 2393, N—[[6-[(3S)-3-fluoropyrrolidin-1-yl]-2-pyridyl]sulfonyl]-2-(2,2,4-trimethylpyrrolidin-1-yl)pyridine-3-carboxamide]	–
–	< 3 µM	COc1c(F)cccc1-c1ccc(C(=O)NS(=O)(=O)c2cccnc2N)c(N2C[C@@H](C)CC2(C)C)n1 [Compound 2355, N-[(2-amino-3-pyridyl)sulfonyl]-6-(3-fluoro-2-methoxy-phenyl)-2-[(4S)-2,2,4-trimethylpyrrolidin-1-yl]pyridine-3-carboxamide]	–
–	< 3 µM	CC1CN(c2ncccc2C(=O)NS(=O)(=O)c2cccc(N3CCC(C(F)(F)F)CC3)n2)C(C)(C)C1 (stereo not shown) [Compound 2641, N—[[6-[4-(trifluoromethyl)-1-piperidyl]-2-pyridyl]sulfonyl]-2-(2,2,4-trimethylpyrrolidin-1-yl)pyridine-3-carboxamide]	–
–	< 3 µM	C[C@@H]1CN(c2nc(C3CCCCO3)ccc2C(=O)NS(=O)(=O)c2cccnc2N)C(C)(C)C1 (single isomer, unassigned) [Compound 2672]	–
–	< 3 µM	CC1CN(c2ncccc2C(=O)NS(=O)(=O)c2cccc(OCCC3CCCC3)n2)C(C)(C)C1 (stereo not shown) [Compound 2630, N—[[6-(2-cyclopentylethoxy)-2-pyridyl]sulfonyl]-2-(2,2,4-trimethylpyrrolidin-1-yl)pyridine-3-carboxamide]	–

More lines, now with the values behind:

SMILES	EC30 [1]	EC30 [2]	other results
Cc1ccc(Oc2nc(-c3cnn(CC(C)C)c3)ccc2C(=O)NS(=O)(=O)c2nccnc2N)c(C)c1 [Compound 713, N-(3-aminopyrazin-2-yl)sulfonyl-2-(2,4-dimethylphenoxy)-6-(1-isobutylpyrazol-4-yl)pyridine-3-carboxamide]	++ (“++” means between 3 uM and 10 uM)	–	–
C[C@@H]1CN(c2nc(-c3cccc(C#N)c3)ccc2C(=O)NS(=O)(=O)c2ccc[nH]c2=O)C(C)(C)C1 [Compound 2185, 6-(3-cyanophenyl)-N-[(2-oxo-1H-pyridin-3-yl)sulfonyl]-2-[(4S)-2,2,4-trimethylpyrrolidin-1-yl]pyridine-3-carboxamide]	–	3 to 10 µM	–
CC(C)COc1cc(F)cc(-c2ccc(C(=O)NS(=O)(=O)c3cccc(N)n3)c(N3CCC(C)CC(C)C3)n2)c1 (stereo not shown) [Compound 2479, N-[(6-amino-2-pyridyl)sulfonyl]-2-(3,5-dimethylazepan-1-yl)-6-(3-fluoro-5-isobutoxy-phenyl)pyridine-3-carboxamide]	–	< 3 µM	–
CC1CN(c2ncccc2C(=O)NS(=O)(=O)c2cccc(Oc3ccc(C#N)cc3)n2)C(C)(C)C1 (stereo not shown) [Compound 2076, N—[[6-(4-cyanophenoxy)-2-pyridyl]sulfonyl]-2-(2,2,4-trimethylpyrrolidin-1-yl)pyridine-3-carboxamide]	–	< 3 µM	–
CC(C)COc1cc(F)cc(-c2ccc(C(=O)NS(=O)(=O)c3cccc(N)n3)c(N3CCCC(C)(C)CC3)n2)c1 [Compound 2171, N-[(6-amino-2-pyridyl)sulfonyl]-2-(4,4-dimethylazepan-1-yl)-6-(3-fluoro-5-isobutoxy-phenyl)pyridine-3-carboxamide]	–	< 3 µM	–
CC(C)(C)c1ccc(C(=O)NS(=O)(=O)c2cccc(N)n2)c(N2CCC(C3CC3)C2(C)C)n1 (single isomer, unassigned) [Compound 2577, N-[(6-amino-2-pyridyl)sulfonyl]-6-tert-butyl-2-(3-cyclopropyl-2,2-dimethyl-pyrrolidin-1-yl)pyridine-3-carboxamide]	–	–	EC30 (F508del CFTR modulator activity, compounds of Table 1): +++ (“+++” means <3 uM)
COc1ncc(F)cc1-c1ccc(C(=O)NS(=O)(=O)c2cccc(N)n2)c(Oc2c(C)cc(C)cc2C)n1 [Compound 387, N-[(6-amino-2-pyridyl)sulfonyl]-6-(5-fluoro-2-methoxy-3-pyridyl)-2-(2,4,6-trimethylphenoxy)pyridine-3-carboxamide]	+++ (“+++” means <3 uM)	–	–
CC(c1ccccc1)N1Cc2ccccc2C1C(=O)NS(=O)(=O)c1cccc(N)c1 (stereo not shown) [Compound 187, N-(3-aminophenyl)sulfonyl-2-(1-phenylethyl)isoindoline-1-carboxamide]	++ (“++” means between 3 uM and 10 uM)	–	–
CC(C)COc1cc(F)cc(-c2ccc(C(=O)NS(=O)(=O)c3cccc(N)n3)c(N3CCCC3(C)Cc3ccccc3)n2)c1 (stereo not shown) [Compound 663, N-[(6-amino-2-pyridyl)sulfonyl]-2-(2-benzyl-2-methyl-pyrrolidin-1-yl)-6-(3-fluoro-5-isobutoxy-phenyl)pyridine-3-carboxamide]	+++ (“+++” means <3 uM)	–	–
Cc1cccc(C)c1CN1Cc2ccccc2C1(C)C(=O)NS(=O)(=O)c1cccc(N)n1 (stereo not shown) [Compound 790, N-[(6-amino-2-pyridyl)sulfonyl]-2-[(2,6-dimethylphenyl)methyl]-1-methyl-isoindoline-1-carboxamide]	+++ (“+++” means <3 uM)	–	–
Cc1cc(C)c(Oc2nc(-c3ccc(F)cc3)ccc2C(=O)NS(=O)(=O)c2ccc[nH]c2=O)c(C)c1 [Compound 561, 6-(4-fluorophenyl)-N-[(2-oxo-1H-pyridin-3-yl)sulfonyl]-2-(2,4,6-trimethylphenoxy)pyridine-3-carboxamide]	+++ (“+++” means <3 uM)	–	–
CC(C)COc1cc(F)cc(-c2ccc(C(=O)NS(=O)(=O)c3cccc(N)n3)c(N3CC(C)CC3C)n2)c1 (stereo not shown) [Compound 587, N-[(6-amino-2-pyridyl)sulfonyl]-2-(2,4-dimethylpyrrolidin-1-yl)-6-(3-fluoro-5-isobutoxy-phenyl)pyridine-3-carboxamide]	+++ (“+++” means <3 uM)	–	–
Cc1cc(C)c(CN2CCCc3ccccc3C2C(=O)NS(=O)(=O)c2cccc(N)n2)c(C)c1 (stereo not shown) [Compound 696, N-[(6-amino-2-pyridyl)sulfonyl]-2-[(2,4,6-trimethylphenyl)methyl]-1,3,4,5-tetrahydro-2-benzazepine-1-carboxamide]	+++ (“+++” means <3 uM)	–	–
COc1cccc(-c2ccc(C(=O)NS(=O)(=O)c3cccnc3N)c(N3C[C@@H](C)CC3(C)C)n2)c1 [Compound 2164, N-[(2-amino-3-pyridyl)sulfonyl]-6-(3-methoxyphenyl)-2-[(4S)-2,2,4-trimethylpyrrolidin-1-yl]pyridine-3-carboxamide]	–	< 3 µM	–
COc1c(C)cccc1-c1cc(C(=O)NS(=O)(=O)c2cccc(N)c2)n(Cc2c(C)cc(C)cc2C)n1 [Compound 208, N-(3-aminophenyl)sulfonyl-5-(2-methoxy-3-methyl-phenyl)-2-[(2,4,6-trimethylphenyl)methyl]pyrazole-3-carboxamide]	+++ (“+++” means <3 uM)	–	–
C[C@@H]1CN(c2nc(-c3cccc(C(F)(F)F)c3)ccc2C(=O)NS(=O)(=O)c2ccc[nH]c2=O)C(C)(C)C1 [Compound 2144, N-[(2-oxo-1H-pyridin-3-yl)sulfonyl]-6-[3-(trifluoromethyl)phenyl]-2-[(4S)-2,2,4-trimethylpyrrolidin-1-yl]pyridine-3-carboxamide]	–	< 3 µM	–
COc1ccc2c(c1)CN(Cc1c(C)cc(C)cc1C)C2(C)C(=O)NS(=O)(=O)c1cccc(N)n1 (stereo not shown) [Compound 406, N-[(6-amino-2-pyridyl)sulfonyl]-5-methoxy-1-methyl-2-[(2,4,6-trimethylphenyl)methyl]isoindoline-1-carboxamide]	+++ (“+++” means <3 uM)	–	–
COc1cccc(-c2ccc(C(=O)NS(=O)(=O)c3cccnc3N)c(N3C[C@@H](C)CC3(C)C)n2)c1O [Compound 2158, N-[(2-amino-3-pyridyl)sulfonyl]-6-(2-hydroxy-3-methoxy-phenyl)-2-[(4S)-2,2,4-trimethylpyrrolidin-1-yl]pyridine-3-carboxamide]	–	3 to 10 µM	–
Cc1cc(C)c(Oc2nc(-c3ccc4c(c3)OCCO4)ccc2C(=O)NS(=O)(=O)c2cccc(N)n2)c(C)c1 [Compound 673, N-[(6-amino-2-pyridyl)sulfonyl]-6-(2,3-dihydro-1,4-benzodioxin-6-yl)-2-(2,4,6-trimethylphenoxy)pyridine-3-carboxamide]	+++ (“+++” means <3 uM)	–	–
Cc1ccc(-c2nc3c(cc2C(=O)NS(=O)(=O)c2nccnc2N)CCCC3(C)C)cc1 [Compound 707, N-(3-aminopyrazin-2-yl)sulfonyl-8,8-dimethyl-2-(p-tolyl)-6,7-dihydro-5H-quinoline-3-carboxamide]	+ (“+” means greater than 10 uM)	–	–
